Results from patent US10556865B2, “Synergistic herbicidal composition containing certain pyridine or pyrimidine carboxylic acids and certain cereal and rice herbicides” (Dow AgroSciences, LLC, priority 2007, dated 2020).
Several values for one entry are separate records, joined by “and”; a condition that tells them apart may be missing. Identical values can stand only once.

Tests used:
Format in all cases: in vivo
[1] = tested on: Echinochloa species (ECHSS); assay: Herbicidal mixtures for weed control in transplanted paddy rice (in-water application, visual % injury after 3 weeks)
Protocol: (§1) Weed seeds or nutlets of the desired test plant species were planted in puddled soil (mud) prepared by mixing a non-sterilized mineral soil (28 percent silt, 18 percent clay, and 54 percent sand, with a pH of about 7.3 to 7.8 and an organic matter content of about 1.0 percent) and water at a ratio of 100 kilograms (kg) of soil to 19 L of water. The prepared mud was dispensed in 250 mL aliquots into 480 mL non-perforated plastic pots with a surface area of 91.6 square centimeters leaving a headspace of 3 centimeters in each pot. Rice seeds were planted in Sun Gro MetroMix® 306 planting mixture, which typically has a pH of 6.0 to 6.8 and an organic matter content of about 30 percent, in plastic plug trays. Seedlings at the second or third leaf stage of growth were transplanted into 650 mL of mud contained in 960 mL non-perforated plastic pots with a surface area of 91.6 cm^2 4 days prior to herbicide application. The paddy was created by filling the 3 centimeter headspace of the pots with water. When required to ensure good germination and healthy plants, a fungicide treatment and/or other chemical or physical treatment was applied. The plants were grown for 4-14 days in a greenhouse with an approximate 14 hr photoperiod which was maintained at about 29° C. during the day and 26° C. during the night. Nutrients were added as Osmocote (17:6:10, N:P:K+minor nutrients) at 2 g per cup. Water was added on a regular basis to maintain the paddy flood, and supplemental lighting was provided with overhead metal halide 1000-Watt lamps as necessary. The plants were employed for testing when they reached the second or third true leaf stage.
(§2) Treatments consisted of esters or salts of compound A, compound C, or compound D and various herbicidal components alone and in combination. For technical grade compounds, a weighed amount, determined by the highest rate to be tested, was placed in an individual 120 mL glass vial and was dissolved in 20 mL of acetone to obtain concentrated stock solutions. […] The concentrated stock solutions obtained were diluted with 20 mL of an aqueous mixture containing 2.5% Agri-dex crop oil concentrate (v/v). For formulated compounds, a measured amount, determined by the highest rate to be tested, was placed in an individual 120 mL glass vial and was dissolved in 20 mL of 2.5% (v/v) Agri-dex crop oil concentrate to obtain concentrated stock solutions. The concentrated stock solutions obtained were diluted with 20 mL of acetone. Applications were made by injecting an appropriate amount of the stock solution into the aqueous layer of the paddy. Control plants were treated in the same manner with the solvent blank. All treated plant material received the same concentration of acetone and crop oil concentrate.
(§3) Forms of compounds A, C, and D were applied on an acid equivalent basis. Other herbicidal components were applied on an active ingredient basis and included acetolactate synthase (ALS)-inhibiting herbicides penoxsulam (triazolopyrimidine chemical class) applied as Grasp SC, […] (sulfonylurea chemical class) applied as Sirius G, and bensulfuron-methyl (sulfonylurea chemical class) applied as Londax; acetyl CoA carboxylase (ACCase) inhibiting herbicides cyhalofop-butyl applied as Clincher G and fenoxaprop-p-ethyl applied as Ricestar HT; auxinic herbicide quinclorac applied as Facet 75 DF; phytoene desaturase inhibiting herbicide norflurazon; and p-hydroxyphenylpyruvate dioxygenase (HPPD) inhibiting herbicide sulcotrione applied as Mikado.
(§4) The treated plants and control plants were placed in a greenhouse as described above and water was added as needed to maintain a paddy flood. After 3 weeks the condition of the test plants as compared with that of the untreated plants was determined visually and scored on a scale of 0 to 100 percent where 0 corresponds to no injury and 100 corresponds to complete kill.

[2] = tested on: Leptochloa chinensis (L.) NEES (LEFCH); assay: Postemergence herbicidal mixtures for weed control in direct seeded rice (greenhouse, visual % injury)
[3] = tested on: Cyperus species (CYPSS); assay: Herbicidal mixtures for weed control in transplanted paddy rice (in-water application, visual % injury)
Protocol: as §1, §2, §3, §4

[4] = tested on: Leptochloa chinensis (L.) NEES (LEFCH); assay: as above
Protocol: as §1, §2, §3, §4

[5] = tested on: Eleocharis kuroguwai OHWI (ELOKU); assay: as above
Protocol: as §1, §2, §3, §4

[6] = tested on: Fimbristylis miliacea (L.) VAHL (FIMMI); assay: as above
Protocol: as §1, with “When required to ensure good germination and healthy plants, a fungicide treatment and/or other chemical or physical treatment was applied.” left out
as §2, §3, §4

[7] = tested on: Cyperus iria L. (CYPIR); assay: Postemergence herbicidal mixtures for weed control in direct seeded rice (greenhouse, visual % injury)
[8] = tested on: Polygonum persicaria L. (POLPE); assay: as above
[9] = tested on: Cyperus esculentus L. (CYPES); assay: as above
[10] = tested on: Polygonum pensylvanicum L. (POLPY); assay: as above
[11] = tested on: Scirpus maritimus L. (SCPMA); assay: as above
[12] = tested on: Ipomoea hederacea (L.) JACQ. (IPOHE); assay: Postemergence herbicidal mixtures for weed control in direct seeded rice (greenhouse, visual % injury after 3 weeks)
[13] = tested on: Ischaemum rugosum SALISB. (ISCRU); assay: Postemergence herbicidal mixtures for weed control in direct seeded rice (greenhouse, visual % injury)

Structure (SMILES): COC(=O)c1ccccc1CS(=O)(=O)NC(=O)Nc1nc(OC)cc(OC)n1 [Bensulfuron-methyl]
- % Injury Ob ([1]; ECHCG, 70 g/ha alone): 45% and 70%
- % Injury Ob ([1]; ECHCO, 35 g/ha alone): 20%
- % Injury Ob ([1]; ECHCO, 70 g/ha alone): 30%
- % Injury LEFCH Ob ([2]; alone 4.38 g/ha): 20%
- % Injury LEFCH Ob ([2]; alone 8.75 g/ha): 0%
- % Injury Ob ([3]; CYPES, 4.38 g/ha alone): 40%
- % Injury Ob ([3]; CYPES, 8.75 g/ha alone): 50%
- % Injury Ob ([4]; 35 g/ha alone): 15%
- % Injury Ob ([4]; 70 g/ha alone): 30%
- % Injury Ob ([5]; 35 g/ha alone): 20%
- % Injury Ob ([5]; 70 g/ha alone): 70%
- % Injury Ob ([6]; 35 g/ha alone): 10%
- % Injury Ob ([6]; 70 g/ha alone): 50%

Structure (SMILES): CCOC(=O)C(Cl)Cc1cc(-n2nc(C)n(C(F)F)c2=O)c(F)cc1Cl (stereo not drawn) [Carfentrazone-ethyl]
- % Injury CYPIR Ob ([7]; alone 14 g/ha): 0%
- % Injury CYPIR Ob ([7]; alone 28 g/ha): 0%
- % Injury POLPE Ob ([8]; alone 14 g/ha): 0%
- % Injury 11 DAA CYPES Ob ([9]; alone 14 g/ha): 10%
- % Injury 11 DAA CYPES Ob ([9]; alone 28 g/ha): 10%
- % Injury 21 DAA CYPES Ob ([9]; alone 14 g/ha): 0%
- % Injury 21 DAA CYPES Ob ([9]; alone 28 g/ha): 0%
- % Injury CYPES Ob ([9]; alone 56 g/ha): 10%
- % Injury CYPES Ob ([9]; alone 112 g/ha): 0%

Structure (SMILES): CCCCOC(=O)c1nc(-c2ccc(Cl)c(OC)c2F)cc(N)c1Cl [Compound A n-Butyl]
- % Injury POLPY Ob ([10]; alone 8.75 g/ha): 40%
- % Injury POLPY Ob ([10]; alone 17.5 g/ha): 90%
- % Injury at 11 DAA CYPIR Ob ([7]; alone 35 g/ha): 60%
- % Injury at 11 DAA CYPIR Ob ([7]; alone 70 g/ha): 90%
- % Injury at 21 DAA CYPIR Ob ([7]; alone 35 g/ha): 60%
- % Injury at 21 DAA CYPIR Ob ([7]; alone 70 g/ha): 100%
- % Injury LEFCH Ob ([2]; alone 8.75 g/ha): 10%
- % Injury LEFCH Ob ([2]; alone 17.5 g/ha): 30%
- % Injury LEFCH Ob ([2]; alone 35 g/ha): 60%
- % Injury POLPE Ob ([8]; alone 4.38 g/ha): 40%
- % Injury POLPE Ob ([8]; alone 8.75 g/ha): 60%
- % Injury at 11 DAA SCPMA Ob ([11]; alone 35 g/ha): 30%
- % Injury at 11 DAA SCPMA Ob ([11]; alone 70 g/ha): 100%
- % Injury at 21 DAA SCPMA Ob ([11]; alone 35 g/ha): 50%
- % Injury at 21 DAA SCPMA Ob ([11]; alone 70 g/ha): 100%
- % Injury IPOHE Ob ([12]; alone 8.75 g/ha): 35%
- % Injury IPOHE Ob ([12]; alone 17.5 g/ha): 30%
- % Injury ISCRU Ob ([13]; alone 35 g/ha): 20%
- % Injury ISCRU Ob ([13]; alone 70 g/ha): 50%
- % Injury 11 DAA CYPES Ob ([9]; alone 35 g/ha): 50%
- % Injury 11 DAA CYPES Ob ([9]; alone 70 g/ha): 75%
- % Injury 21 DAA CYPES Ob ([9]; alone 35 g/ha): 90%
- % Injury 21 DAA CYPES Ob ([9]; alone 70 g/ha): 100%
- % Injury CYPES Ob ([9]; alone 8.75 g/ha): 50%
- % Injury CYPES Ob ([9]; alone 17.5 g/ha): 85% and 90%

Structure (SMILES): COC(=O)c1nc(-c2ccc(Cl)c(OC)c2Cl)cc(N)c1Cl [Compound C Methyl]
- % Injury Ob ([1]; ECHCG, 4.38 g/ha alone): 0%
- % Injury Ob ([1]; ECHCG, 8.75 g/ha alone): 0%
- % Injury Ob ([1]; ECHCG, 17.5 g/ha alone): 0%
- % Injury Ob ([1]; ECHCG, 35 g/ha alone): 10%
- % Injury POLPY Ob ([10]; alone 8.75 g/ha): 10%
- % Injury POLPY Ob ([10]; alone 17.5 g/ha): 15%
- % Injury CYPIR Ob ([7]; alone 8.75 g/ha): 25%
- % Injury CYPIR Ob ([7]; alone 35 g/ha): 40%
- % Injury LEFCH Ob ([2]; alone 4.38 g/ha): 0%
- % Injury Ob ([4]; 17.5 g/ha alone): 0%
- % Injury Ob ([4]; 35 g/ha alone): 0%
- % Injury Ob ([4]; 70 g/ha alone): 0%
- % Injury POLPE Ob ([8]; alone 35 g/ha): 85%
- % Injury POLPE Ob ([8]; alone 70 g/ha): 100%
- % Injury IPOHE Ob ([12]; alone 4.38 g/ha): 40%
- % Injury IPOHE Ob ([12]; alone 17.5 g/ha): 50% and 40%
- % Injury IPOHE Ob ([12]; alone 70 g/ha): 85%
- % Injury CYPES Ob ([9]; alone 17.5 g/ha): 65% and 100%

Structure (SMILES): COc1cnc(OC)n2nc(NS(=O)(=O)c3c(OCC(F)F)cccc3C(F)(F)F)nc12 [Penoxsulam]
- % Injury Ob ([1]; ECHCG, 4.38 g/ha alone): 70%
- % Injury LEFCH Ob ([2]; alone 17.5 g/ha): 0%
- % Injury LEFCH Ob ([2]; alone 35 g/ha): 0%
- % Injury Ob ([3]; CYPES, 8.75 g/ha alone): 40%
- % Injury Ob ([3]; CYPIR, 8.75 g/ha alone): 70%
- % Injury Ob ([4]; 8.75 g/ha alone): 0%
- % Injury Ob ([4]; 17.5 g/ha alone): 15%
- % Injury Ob ([4]; 35 g/ha alone): 20%
- % Injury Ob ([5]; 8.75 g/ha alone): 0%
- % Injury Obs ([5]; 8.75 g/ha alone): 0%
- % Injury IPOHE Ob ([12]; alone 4.38 g/ha): 70%
- % Injury IPOHE Ob ([12]; alone 8.75 g/ha): 60%
- % Injury CYPES Ob ([9]; alone 17.5 g/ha): 10%

Structure (SMILES): CCC(=O)Nc1ccc(Cl)c(Cl)c1 [Propanil]
- % Injury at 11 DAA CYPIR Ob ([7]; alone 560 g/ha): 10%
- % Injury at 11 DAA CYPIR Ob ([7]; alone 1120 g/ha): 10%
- % Injury at 21 DAA CYPIR Ob ([7]; alone 560 g/ha): 0%
- % Injury at 21 DAA CYPIR Ob ([7]; alone 1120 g/ha): 0%
- % Injury POLPE Ob ([8]; alone 560 g/ha): 10%
- % Injury POLPE Ob ([8]; alone 1120 g/ha): 40%
- % Injury at 11 DAA SCPMA Ob ([11]; alone 560 g/ha): 30%
- % Injury at 11 DAA SCPMA Ob ([11]; alone 1120 g/ha): 30%
- % Injury at 21 DAA SCPMA Ob ([11]; alone 560 g/ha): 0%
- % Injury at 21 DAA SCPMA Ob ([11]; alone 1120 g/ha): 0%
- % Injury IPOHE Ob ([12]; alone 560 g/ha): 10%
- % Injury IPOHE Ob ([12]; alone 1120 g/ha): 10%
